Laboratory results from US6906098B2, “Mixed steroidal 1,2,4,5-tetraoxane compounds and methods of making and using thereof” (priority 2002, dated 2005).
Values after ≈ are worked out from the molar mass of the structure shown. Values joined by “and” are separate entries in the source; they are usually repeats but may differ in a detail not shown here. Equal entries are not always repeated. Where two headings read alike, the source gives them in different places.

Key:
[1] = tested on: Mycobacterium tuberculosis H37Rv (ATCC 27294); test: Primary screen, Microplate Alamar Blue Assay (MABA), percent inhibition; type: cell-based; conditions: primary screening at 6.25 μg/ml; for inhibition at 6.25 µg/mL: Mycobacterium tuberculosis
Description: (§1) The activity of the compounds of the present invention against Mycobacterium tuberculosis was determined using the following assays conducted by the National Institute of Allergy and Infectious Diseases (NIAID) supports a TB drug acquisition and screening program, the TAACF.
To determine the percent inhibition the following assay was conducted. Primary screening was conducted at 6.25 μg/ml (or the molar equivalent of highest molecular weight compound in a given series of congeners) against Mycobacterium tuberculosis H37Rv (ATCC 27294) in BACTEC 12B medium using the Microplate Alamar Blue Assay (MABA). See Collins, L. and S. G. Franzblau. 1997. Microplate alamar blue assay versus BACTEC 460 system for high-throughput screening of compounds against Mycobacterium tuberculosis and Mycobacterium avium. Antimicrob Agents Chemother 41:1004-9, which is herein incorporated by reference.
Minimum compound requirements: 1.0 mg.

[2] = tested on: D6 and W2 P. falciparum clones; type: cell-based, Plasmodium falciparum; conditions: for Resistance Index: IC50 (W2)/IC50 (D6) ratio
[3] = tested on: Plasmodium falciparum chloroquine-susceptible strain D6; test: In vitro antimalarial drug susceptibility assay (radiolabeled hypoxanthine incorporation), strain D6; type: cell-based; conditions: for Strain D6 IC50: growth inhibition, chloroquine-susceptible strain D6, 66 h incubation; for IC50: Plasmodium falciparum, D6, 66 h
[4] = tested on: Plasmodium falciparum chloroquine-resistant strain W2; test: microbe, parasite or virus in culture; type: cell-based; conditions: for Strain W2 IC50: growth inhibition, chloroquine-resistant strain W2, 66 h incubation; for IC50: Plasmodium falciparum, W2, 66 h
[5] = tested on: M. tuberculosis H37Rv; test: Minimum inhibitory concentration (MIC) in the MABA; type: cell-based, Mycobacterium tuberculosis
Description: as §1
2. Minimum Inhibitory Concentration (MIC)
The MIC is defined as the lowest concentration effecting a reduction in fluorescence of 90% relative to controls. Minimum compound requirements: 1.0 mg.

[6] = Table 5, Alamar assay, read-out: % Inhib
[7] = Mycobacterium tuberculosis, H37RV, Table 5, Alamar assay, M. tuberculosis H37Rv, read-out: MIC
[8] = Table 5, Alamar assay, M. tuberculosis H37Rv
[9] = read-out: Strain W2 IC50, growth inhibition, chloroquine-resistant strain W2, 66 h incubation
[10] = read-out: Strain D6 IC50, growth inhibition, chloroquine-susceptible strain D6, 66 h incubation

Row | Molecule | Resistance Index [2] | Strain D6 IC50 [3] | Strain W2 IC50 [4] | % Inhib ([1]; Table 5, Alamar assay) | MIC [5, 8] | other results
1 | COC(=O)CCC(C)[C@H]1CCC2C3C(C[C@H](OC(C)=O)[C@@]21C)[C@@]1(C)CCC2(C[C@H]1C[C@H]3OC(C)=O)OOC1(CCC(C)CC1)OO2 (mixture of isomers) [8g/1B08a, Methyl 7α,12α-diacetoxy-5β-cholan-24-oate-3-spiro-6′-(1′,2′,4′,5′-tetraoxacyclohexane)-3′-spiro-1″-((4″R)- and (4″S)-methyl)cyclohexane] | 0.50 | 0.00648 µg/mL | 0.00327 µg/mL | – | – | inhibition at 6.25 µg/mL ([1]; Table 3, H37Rv, read-out: Inhibition (%)): 29%; inhibition at 6.25 µg/mL [1, 6]: 29%; MIC ([5]; Mycobacterium tuberculosis, H37RV, Table 3, H37Rv, read-out: MIC): > 6.25 µg/mL and > 9.63 µM; MIC [5, 7]: > 6.25 µg/mL
2 | COC(=O)CCC(C)[C@H]1CCC2C3C(C[C@H](OC(C)=O)[C@@]21C)[C@@]1(C)CCC2(C[C@H]1C[C@H]3OC(C)=O)OOC1(CCC(C)CC1)OO2 (mixture of isomers) [8h/1B08b, Methyl 7α,12α-diacetoxy-5β-cholan-24-oate-3-spiro-6′-(1′,2′,4′,5′-tetraoxacyclohexane)-3′-spiro-1″-((4″R)- and (4″S)-methyl)cyclohexane] | 0.53 | 0.01599 µg/mL | 0.00854 µg/mL | 38% | >6.25 µg/mL | –
3 | CCC1CCC2(CC1)OOC1(CC[C@]3(C)C4C[C@H](OC(C)=O)[C@@]5(C)C(CC[C@@H]5C(C)CCC(=O)OC)C4[C@H](OC(C)=O)C[C@@H]3C1)OO2 (single isomer, unassigned) [8i/1B13a, Methyl 7α,12α-diacetoxy-5β-cholan-24-oate-3-spiro-6′-(1′,2′,4′,5′-tetraoxacyclohexane)-3′-spiro-1″-((4″R or S)- and (4″S or R)-ethyl)cyclohexane] | 2.10 | 0.00446 µg/mL | – | – | – | inhibition at 6.25 µg/mL [1, 6]: 62%; IC50 [4, 9]: 0.00939 µg/mL (≈ 0.0142 µM); MIC [5, 7]: > 6.25 µg/mL
4 | CCC1CCC2(CC1)OOC1(CC[C@]3(C)C4C[C@H](OC(C)=O)[C@@]5(C)C(CC[C@@H]5C(C)CCC(=O)OC)C4[C@H](OC(C)=O)C[C@@H]3C1)OO2 (single isomer, unassigned) [8j/1B13b, Methyl 7α,12α-diacetoxy-5β-cholan-24-oate-3-spiro-6′-(1′,2′,4′,5′-tetraoxacyclohexane)-3′-spiro-1″-((4″R or S)- and (4″S or R)-ethyl)cyclohexane] | 1.60 | 0.01173 µg/mL | 0.01876 µg/mL | 65% | >6.25 µg/mL | –
5 | COC(=O)CCC(C)[C@H]1CCC2C3C(C[C@H](OC(C)=O)[C@@]21C)[C@@]1(C)CCC2(C[C@H]1C[C@H]3OC(C)=O)OOC1(CCC(C(C)(C)C)CC1)OO2 (single isomer, unassigned) [8k/1B09a, Methyl 7α,12α-diacetoxy-5β-cholan-24-oate-3-spiro-6′-(1′,2′,4′,5′-tetraoxacyclohexane)-3′-spiro-1″-(4″R or S)- and (4″S or R)-t-butyl)cyclohexane] | 0.49 | 0.07426 µg/mL | – | – | – | % Inhib ([1]; Table 5, Alamar assay, listed as 8g 1B09a): 32%; IC50 [4, 9]: 0.0364 µg/mL (≈ 0.0527 µM); MIC ([5]; Mycobacterium tuberculosis, H37RV, Table 5, Alamar assay, M. tuberculosis H37Rv): > 6.25 µg/mL
6 | COC(=O)CCC(C)[C@H]1CCC2C3C(C[C@H](OC(C)=O)[C@@]21C)[C@@]1(C)CCC2(C[C@H]1C[C@H]3OC(C)=O)OOC1(CCC(C(C)(C)C)CC1)OO2 (single isomer, unassigned) [8l/1B09b, Methyl 7α,12α-diacetoxy-5β-cholan-24-oate-3-spiro-6′-(1′,2′,4′,5′-tetraoxacyclohexane)-3′-spiro-1″-(4″R or S)- and (4″S or R)-t-butyl)cyclohexane] | 0.54 | 0.03584 µg/mL | 0.01919 µg/mL | 0% | >6.25 µg/mL | times more active than bis(1,1-dioxy-4-tert-butylcyclohexane) ([2]; antimalarial activity versus literature tetraoxane): ca. 3.7 times
7 | CCC1CCC2(CC1)OOC1(CC[C@]3(C)C4C[C@H](OC(C)=O)[C@@]5(C)C(CC[C@@H]5C(C)CCC(=O)O)C4[C@H](OC(C)=O)C[C@@H]3C1)OO2 (single isomer, unassigned) [9i/1C34, 7α,12α-Diacetoxy-5β-cholan-24-oic acid-3-spiro-6′-(1′,2′,4′,5′-tetraoxacyclohexane)-3′-spiro-1″-((4″R or S)-ethyl)cyclohexane] | 1.26 | – | – | – | – | inhibition at 6.25 µg/mL [1, 6]: 80%; IC50 [3, 10]: 0.00374 µg/mL (≈ 0.00576 µM); IC50 [4, 9]: 0.00471 µg/mL (≈ 0.00726 µM); MIC [5, 7]: > 6.25 µg/mL
8 | CCC1CCC2(CC1)OOC1(CC[C@]3(C)C4C[C@H](OC(C)=O)[C@@]5(C)C(CC[C@@H]5C(C)CCC(N)=O)C4[C@H](OC(C)=O)C[C@@H]3C1)OO2 (single isomer, unassigned) [29/1C40, 7α,12α-Diacetoxy-5β-cholan-24-amide-3-spiro-6′-(1′,2′,4′,5′-tetraoxacyclohexane)-3′-spiro-1″-((4″S or R)-ethyl)cyclohexane] | 0.40 | 0.02012 µg/mL | 0.00811 µg/mL | 100% | 3.13 µg/mL (≈ 4.83 µM) | –
9 | CCNC(=O)CCC(C)[C@H]1CCC2C3C(C[C@H](OC(C)=O)[C@@]21C)[C@@]1(C)CCC2(C[C@H]1C[C@H]3OC(C)=O)OOC1(CCC(CC)CC1)OO2 (single isomer, unassigned) [31/1C42, N-Ethyl-7α,12α-Diacetoxy-5β-cholan-24-amide-3-spiro-6′-(1′,2′,4′,5′-tetraoxacyclohexane)-3′-spiro-1″-((4″S or R)-ethyl)cyclohexane] | 0.78 | 0.01564 µg/mL | 0.01222 µg/mL | 83% | >6.25 µg/mL | –
10 | CCCNC(=O)CCC(C)[C@H]1CCC2C3C(C[C@H](OC(C)=O)[C@@]21C)[C@@]1(C)CCC2(C[C@H]1C[C@H]3OC(C)=O)OOC1(CCC(CC)CC1)OO2 (single isomer, unassigned) [32/1C43, N-(n-Propyl)-7α,12α-Diacetoxy-5β-cholan-24-amide-3-spiro-6′-(1′,2′,4′,5′-tetraoxacyclohexane)-3′-spiro-1″-((4″S or R)-ethyl)cyclohexane] | 1.36 | 0.0622 µg/mL | 0.08464 µg/mL | 71% | >6.25 µg/mL | antimalarial activity in words ([2]; D6 and W2 clones, Table 2): inactive
11 | COC(=O)CCC(C)[C@H]1CCC2C3C(C[C@H](OC(C)=O)[C@@]21C)[C@@]1(C)CCC2(C[C@H]1C[C@H]3OC(C)=O)OOC1(CCC(c3ccccc3)CC1)OO2 (single isomer, unassigned) [Compound 1B14b, Methyl 7α,12α-diacetoxy-5β-cholan-24-oate-3-spiro-6′-(1′,2′,4′,5′-tetraoxacyclohexane)-3′-spiro-1″-((4″R or S)- and (4″S or R)-phenyl)cyclohexane] | 0.79 | 0.03176 µg/mL | 0.025 µg/mL | 46% | >6.25 µg/mL | Inhibition (%) ([1]; Table 3, H37Rv): 46%; MIC ([5]; Table 3, H37Rv): >6.25 µg/mL
12 | CCN(CC)CCCC(C)Nc1ccnc2cc(Cl)ccc12 (stereo not shown) [Chloroquine, reference compound] | – | – | – | – | – | IC50 ([3]; read-out: Strain D6 IC50): 0.00371 µg/mL (≈ 0.0116 µM); IC50 ([4]; read-out: Strain W2 IC50): 0.0883 µg/mL (≈ 0.276 µM)
13 | OC(c1cc(C(F)(F)F)nc2c(C(F)(F)F)cccc12)C1CCCCN1 (stereo not shown) [Mefloquine, reference compound] | – | – | – | – | – | IC50 [3, 10]: 0.0106 µg/mL (≈ 0.0281 µM)
14 | Methyl 7α,12α-diacetoxy-5β-cholan-24-oate-3-spiro-6′-(1′,2′,4′,5′-tetraoxacyclohexane)-3′-spiro-1″-((4″R or S)- and (4″S or R)-ethoxycarbonyl)cyclohexane [Compound 1B12a] | 1.87 | 0.00672 µg/mL | 0.01256 µg/mL | – | – | –
15 | Methyl 7α,12α-diacetoxy-5β-cholan-24-oate-3-spiro-6′-(1′,2′,4′,5′-tetraoxacyclohexane)-3′-spiro-1″-((4″R or S)- and (4″S or R)-ethoxycarbonyl)cyclohexane [Compound 1B12b] | 1.77 | 0.03101 µg/mL | 0.05492 µg/mL | – | – | –
